The test system of experiment [1] is cultured human mast cells (CHMC). Put plainly: CHMC low cell density IgE activation: tryptase assay. It is filed as cell-based. To be noted: anti-IgE. The gist of the method:
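Degranulation was triggered with anti-IgE for 30 minutes at 37° C in cultured human mast cells seeded at low density (1000-1500 cells/well, chosen by donor) after a 1 hr equilibration in MT buffer. Released tryptase in cleared supernatant was quantified with a tryptase substrate at room temperature for 30 minutes.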

The test system is the same in experiment [2]. Put plainly: CHMC low cell density ionomycin activation: tryptase assay. In kind it is cell-based.

Usually IC50 stands for the concentration that inhibits the measured activity by half. Read a low IC50 as higher potency. Consider `O=C(CNc1cccc(Nc2ncc(F)c(Nc3cccc(NCCO)c3)n2)c1)NCCNCc1ccccc1` [R950235, N2-[3-[N-(2-N-Benzylamino)ethylamino]carbonylmethyleneaminophenyl]-5-fluoro-N4-[3-(2-hydroxyethylamino)phenyl]-2,4-pyrimidinediamine], for which the values for the IC50 in experiment [1] and in experiment [2] were 4090 nM and over 10000 nM, respectively.

As for `CC(C)(CO)NC(=O)COc1cccc(Nc2ncc(F)c(Nc3ccc4c(c3)OCCO4)n2)c1` [R926764, N4-(3,4-Ethylenedioxyphenyl)-5-fluoro-N2-[3-(N-2-hydroxy-1,1-dimethylethylamino)carboxymethyleneoxyphenyl]-2,4-pyrimidinediamine], the IC50 is 252 nM in experiment [1] and 5640 nM in experiment [2].

As to `Cn1cc2cc(Nc3ncc(F)c(Nc4cccc(O)c4)n3)ccc2n1` [R935299, 5-Fluoro-N4-(3-hydroxyphenyl)-N2-(2-methy-indazoline-5-yl)-2,4-pyrimidinediamine], the IC50 was 210 nM in experiment [1] and over 10000 nM in experiment [2].

Turning to `Cc1noc(COc2ccc(Nc3ncc(F)c(Nc4ccc5c(c4)OCCO5)n3)cc2)n1` [R935143, N4-(3,4-Ethylenedioxyphenyl)-5-fluoro-N2-[4-(3-methyl-1,2,4-oxadiazol-5-yl)methyleneoxyphenyl]-2,4-pyrimidinediamine], the IC50 in experiment [1] was 573 nM; in experiment [2], over 10000 nM.

Consider `CON=C(N)COc1ccc(Nc2ncc(F)c(Nc3cccc(O)c3)n2)cc1` [R945167, 5-Fluoro-N4-(3-hydroxyphenyl)-N2-[4-(2-methoxyimino(amino)ethyleneoxy)phenyl]-2,4-pyrimidinediamine], for which the figures for the IC50 in experiment [1] and in experiment [2] were 761 nM and over 10000 nM, respectively.

For the molecule `Fc1cnc(Nc2ccc3oc(CN4CCOCC4)cc3c2)nc1Nc1ccc2c(c1)OCCO2` [R926490, N4-(3,4-Ethylenedioxyphenyl)-5-fluoro-N2-[2-(N-morpholinomethylene)benzofuran-5-yl]-2,4-pyrimidinediamine], the IC50 in experiment [1] is 1570 nM; in experiment [2], over 10000 nM.

Consider `COC(=O)Cn1ncc2cc(Nc3nc(Nc4cccc(O)c4)ncc3F)ccc21` [R935250, 5-Fluoro-N2-(3-hydroxyphenyl)-N4-[1-(methoxycarbonyl)methyl-indazoline-5-yl]-2,4-pyrimidinediamine], for which the IC50 was 1100 nM in experiment [1] and over 10000 nM in experiment [2].

`O=C1Nc2cc(Nc3nc(Nc4cccc(O)c4)ncc3F)ccc2OC1(F)F` [R940349, N4-[(2,2-Difluoro-4H-benzo[1,4]oxazin-3-one)-6-yl]-5-fluoro-N2-(3-hydroxyphenyl)-2,4-pyrimidinediamine]: the IC50 was 44 nM in experiment [1] and 7400 nM in experiment [2].

Regarding `CC1(C)COC(COc2ccc(Nc3ncc(F)c(Nc4cccc(O)c4)n3)cc2)=N1` [R926702, 5-Fluoro-N4-(3-hydroxyphenyl)-N2-[4-[(4,4-dimethyl-3-oxazolin-2-yl)methyleneoxy]phenyl]-2,4-pyrimidinediamine], the IC50 was 886 nM in experiment [1] and over 10000 nM in experiment [2].

Turning to `CNC(=O)COc1cccc(Nc2ncc(F)c(Nc3ccc4c(c3)NC(=O)CO4)n2)c1` [R908701], the IC50 stood at 99 nM in experiment [1] and 7640 nM in experiment [2].

Turning to `COc1ccc([C@@H](C)Nc2ncc(Br)c(N[C@H](C)c3ccc(OC)cc3)n2)cc1` [R935016, N2,N4-Bis[1(R)-4-methoxyphenylethyl]-5-bromo-2,4-pyrimidineamine], the IC50 in experiment [1] and in experiment [2] was over 10000 nM each time.

`CNC(=O)Cn1ncc2ccc(Nc3ncc(F)c(Nc4ccc5cnn(CC(=O)NC)c5c4)n3)cc21` [R935206, N2,N4-Bis[1-(N-methylaminocarbonyl)methyl-indazoline-6-yl]-5-fluoro-2,4-pyrimidinediamine]: the IC50 in experiment [1] is 4710 nM; in experiment [2], over 10000 nM.

On to `Fc1cnc(Nc2ccc3c(c2)OCCO3)nc1Nc1ccc(OCCN2CCOCC2)cc1` [R926711, N2-(3,4-Ethylenedioxyphenyl)-5-fluoro-N4-[4-[2-(N-morpholino)ethyleneoxy]phenyl]-2,4-pyrimidinediamine], for which the IC50 in experiment [1] was 1240 nM; in experiment [2] it was over 10000 nM.

As for `O=C(COc1cccc(Nc2ncc(F)c(Nc3ccc4c(c3)OCCO4)n2)c1)NC1CCCCC1` [R926765, N2-[3-(N-Cyclohexylamino)carbonylmethyleneoxyphenyl]-N4-(3,4-ethylenedioxyphenyl)-5-fluoro-2,4-pyrimidinediamine], the IC50 was 324 nM in experiment [1] and 4390 nM in experiment [2].

Regarding `CN(C)CCCNC(=O)CNc1cccc(Nc2ncc(F)c(Nc3cccc(NCCO)c3)n2)c1` [R950237, N2-[3-(3-N,N-Dimethylaminopropyl)aminocarbonylmethyleneaminophenyl]-5-fluoro-N4-[3-(2-hydroxyethylamino)phenyl]-2,4-pyrimidinediamine], the IC50 in experiment [1] and in experiment [2] was over 10000 nM each time.

Take `O=C(O)COc1ccc(Nc2ncc(F)c(Nc3cccc(O)c3)n2)cc1` [R926564, N2-(4-Carboxymethyleneoxyphenyl)-5-Fluoro-N4-(3-hydroxyphenyl)-2,4-pyrimidinediamine]: the IC50 is 3750 nM in experiment [1] and over 10000 nM in experiment [2].

With `CNC(=O)COc1cccc(Nc2ncc(F)c(Nc3cccc(N)c3)n2)c1` [R950263, N4-(3-Aminophenyl)-5-fluoro-N2-[3-(N-methylamino)carbonylmethyleneoxyphenyl]-2,4-pyrimidinediamine], the values for the IC50 in experiment [1] and in experiment [2] were 284 nM and 3300 nM, respectively.

Regarding `N#CCOc1ccc(Nc2ncc(F)c(Nc3ccc4c(c3)OCCO4)n2)cc1` [R926480, N2-(4-Cyanomethyleneoxyphenyl)-N4-(3,4-ethylenedioxyphenyl)-5-fluoro-2,4-pyrimidinediamine], the IC50 was 1900 nM in experiment [1] and over 10000 nM in experiment [2].

Turning to `CN(C)C(=O)c1cc2cc(Nc3ncc(F)c(Nc4cccc(O)c4)n3)ccc2o1` [R926718, 5-Fluoro-N4-(3-hydroxyphenyl)-N2-[2-(N-dimethylamino)carbonylbenzofuran-5-yl]-2,4-pyrimidinediamine], the results for the IC50 in experiment [1] and in experiment [2] were 1830 nM and over 10000 nM, respectively.

For `O=C(COc1cccc(Nc2ncc(F)c(Nc3ccc4c(c3)OCCO4)n2)c1)NC(CO)CO` [R926784, N2-[3-(N-1,3-Dihydroxy-2-propylamino)carbonylmethyleneoxyphenyl]-N4-(3,4-ethylenedioxyphenyl)-5-fluoro-2,4-pyrimidinediamine], the results for the IC50 in experiment [1] and in experiment [2] were 252 nM and over 10000 nM, respectively.

On to `Nc1cccc(Nc2nc(Nc3cccc(NC(=O)CCC(C(=O)O)N4C(=O)c5ccccc5C4=O)c3)ncc2F)c1` (racemic) [R950251, (±)-N4-(3-Aminophenyl)-5-fluoro-N2-(3-(3-carboxy-3-D,L-N-phtaloylamino)propylenecarbonylaminophenyl)-2,4-pyrimidinediamine], for which the IC50 in experiment [1] and in experiment [2] was over 10000 nM each time.

For the molecule `CN1CCN(C(=O)CNc2cccc(Nc3ncc(F)c(Nc4ccc5c(c4)OCCO5)n3)c2)CC1` [R950194, N4-(3,4-Ethylenedioxyphenyl)-5-fluoro-N2-[3-(N—(N-methyl)-piperazino)carbonylmethyleneaminophenyl]-2,4-pyrimidinediamine], the IC50 in experiment [1] was 2040 nM; in experiment [2] it was over 10000 nM.

In the case of `CNC(=O)CCn1ncc2cc(Nc3ncc(F)c(Nc4cccc(O)c4)n3)ccc21` [R935305, 5-Fluoro-N4-(3-hydroxyphenyl)-N2-[1-[2(N-methylaminocarbonyl)ethyl]-indazoline-5-yl]-2,4-pyrimidinediamine], the IC50 in experiment [1] is 495 nM; in experiment [2], over 10000 nM.

Take `CNC(=O)COc1cc(Nc2ncc(F)c(Nc3ccc(C)c(OCC(=O)NC)c3)n2)ccc1C` [R926760, 5-Fluoro-N2,N4-bis[4-methyl-3-[(N-methylamino)carbonylmethyleneoxy]phenyl]-2,4-pyrimidinediamine]: the values for the IC50 in experiment [1] and in experiment [2] were 2890 nM and over 10000 nM, respectively.

For `Cn1ncc2cc(Nc3ncc(F)c(Nc4ccc(OC(F)(F)F)c(Cl)c4)n3)ccc21` [R935359, N4-(3-chloro-4-trifluoromethoxyphenyl)-5-fluoro-N2-(1-methylindazoline-5-yl)-2,4-pyrimidinediamine], the concentration for half-maximal inhibition (IC50) in experiment [1] was 1030 nM; in experiment [2] it was over 10000 nM.

In the case of `CCCNC(=O)COc1ccc(Nc2ncc(C#N)c(Nc3ccc(OCC(=O)NCCC)cc3)n2)cc1` [R925853, N2,N4-Bis[4-(N-n-propylamino)carbonylmethyleneoxyphenyl]-5-cyano-2,4-pyrimidinediamine], the IC50 in experiment [1] and in experiment [2] was over 10000 nM in each case.

As for `CNC(=O)CCn1ncc2ccc(Nc3ncc(F)c(Nc4cccc(O)c4)n3)cc21` [R935294, 5-Fluoro-N4-(3-hydroxyphenyl)-N2-[1-[2-(N-methylaminocarbonyl)ethyl]-indazoline-6-yl]-2,4-pyrimidinediamine], the values for the IC50 in experiment [1] and in experiment [2] were 388 nM and over 10000 nM, respectively.

As to `CCOC(=O)C(C)(C)c1ccc(Nc2nc(Nc3cccc(O)c3)ncc2F)cc1` [R935169, N4-[4-[(1-Ethoxycarbonyl-1-methyl)ethyl]phenyl]-5-fluoro-N2-(3-hydroxyphenyl)-2,4-pyrimidinediamine], the IC50 is 999 nM in experiment [1] and 8010 nM in experiment [2].

For `CS(=O)(=O)Nc1cccc(Nc2ncc(F)c(Nc3cccc(NS(C)(=O)=O)c3)n2)c1` [R950100], the IC50 in experiment [1] was 710 nM; in experiment [2] it was over 10000 nM.

`COC(=O)Cn1ncc2cc(Nc3nc(Nc4ccc5c(c4)OCCO5)ncc3F)ccc21` [R935249, N2-(3,4-Ethylenedioxyphenyl)-5-fluoro-N4-[1-(methoxycarbonyl)methyl-indazoline-5-yl]-2,4-pyrimidinediamine]: the IC50 in experiment [1] was 1100 nM; in experiment [2], over 10000 nM.

Turning to `N#Cc1cnc(Nc2cccc(O)c2)nc1Nc1ccc(OCC(=O)NCC2CC2)cc1` [R925845, 5-Cyano-N4-[4-(N-cyclopropylmethylamino)carbonylmethyleneoxyphenyl]-N2-(3-hydroxyphenyl)-2,4-pyrimidinediamine], the results for the IC50 in experiment [1] and in experiment [2] were 2300 nM and over 10000 nM, respectively.

(Values after patent US9499493B2, “2,4-pyrimidinediamine compounds and their uses” (Rigel Pharmaceuticals, Inc., priority 2002, dated 2016).)
